In the supplement of paper PMC10307832:

Compound: COc1cc(Nc2ncc3c(n2)-c2ccc(Cl)cc2C(c2c(F)cccc2OC)=NC3)ccc1C(=O)O [Alisertib] + COc1cc2c(Oc3ccc(NC(=O)C4(C(=O)Nc5ccc(F)cc5)CC4)cc3F)ccnc2cc1OCCCN1CCOCC1 [Foretinib] (partner 0.25 µM)
Assay: relative viability (nuclei count vs DMSO), 5 days (fraction); higher = more cells survive
Method in brief: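 For relative viability, nuclei counts in treated wells were divided by those in vehicle wells. Lung cancer cell lines had been pin-tool dosed in 1536-well plates the day after seeding and cultured for 5 days, then fixed and stained in one step (final 0.05% Triton X-100, 1% formaldehyde, 1 ug/ml Hoechst) and imaged at 4×. Doses were one drug alone or a fixed anchor-drug dose plus five library-drug doses (not always all listed) in √10 steps, and values are duplicate-plate medians.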

| Cell Line | relative viability (first compound 0.005 µM) | relative viability (first compound 0.01581 µM) | relative viability (first compound 0.05 µM) | relative viability (first compound 0.1581 µM) | relative viability (first compound 0.5 µM) |
| --- | --- | --- | --- | --- | --- |
| LCLC-97TM1 | 0.91 | 0.707 | 0.379 | 0.253 | 0.182 |
| HARA | 0.864 | 0.663 | 0.316 | 0.148 | 0.101 |
| HCC-78 | 0.548 | 0.438 | 0.329 | 0.238 | 0.275 |
| NCI-H1666 | 0.841 | 0.82 | 0.597 | 0.415 | 0.403 |
| NCI-H2347 | 0.733 | 0.84 | 0.863 | 0.454 | 0.459 |
| PC-14 | 0.849 | 0.77 | 0.837 | 0.473 | 0.135 |
| NCI-H2023 | 0.936 | 0.743 | 0.501 | 0.46 | 0.0916 |
| 201T | 1.14 | 0.997 | 1.02 | 0.453 | 0.271 |
| NCI-H1915 | 0.998 | 0.907 | 0.431 | 0.463 | 0.236 |
| NCI-H2009 | 1.19 | 1.05 | 0.618 | 0.429 | 0.248 |
| BEN | 0.486 | 0.57 | 0.277 | 0.213 | 0.21 |
| PC-3 [JPC-3] | 0.97 | 0.868 | 0.706 | 0.531 | 0.398 |
| SK-MES-1 | 0.779 | 0.928 | 0.74 | 0.233 | 0.189 |
| NCI-H838 | 1.03 | 0.971 | 0.605 | 0.394 | 0.202 |
| NCI-H1355 | 0.88 | 0.892 | 0.343 | 0.244 | 0.202 |
| NCI-H1975 | 0.816 | 0.989 | 0.501 | 0.204 | 0.165 |
| LK-2 | 0.955 | 0.979 | 0.601 | 0.245 | 0.189 |
| NCI-H727 | 0.658 | 0.922 | 0.488 | 0.352 | 0.417 |
| HCC-366 | 0.975 | 0.156 | 0.035 | 0.054 | 0.055 |
| HOP-62 | 1.08 | 0.876 | 0.285 | 0.256 | 0.205 |
| NCI-H1944 | 0.845 | 0.818 | 0.633 | 0.386 | 0.227 |
| UMC-11 | 0.648 | 0.263 | 0.189 | 0.195 | 0.168 |
| LU99A | 0.741 | 0.762 | 0.361 | 0.27 | 0.205 |
| NCI-H650 | 0.926 | 0.902 | 0.407 | 0.226 | 0.222 |
| A-427 | 0.877 | 0.777 | 0.197 | 0.182 | 0.178 |

| Cell Line | relative viability (first compound 0.005 µM) | relative viability (first compound 0.01581 µM) | relative viability (first compound 0.05 µM) | relative viability (first compound 0.1581 µM) | relative viability (first compound 0.5 µM) |
| --- | --- | --- | --- | --- | --- |
| COR-L 105 | 0.937 | 1.11 | 0.919 | 0.662 | 0.271 |
| NCI-H441 | 0.845 | 0.546 | 0.308 | 0.262 | 0.232 |
| NCI-H2126 | 1.08 | 1.02 | 0.455 | 0.294 | 0.382 |
| EBC-1 | 0.109 | 0.103 | 0.08 | 0.0764 | 0.0821 |
| NCI-H460 | 0.98 | 0.956 | 0.283 | 0.0899 | 0.0482 |
| SW 1573 | 0.911 | 0.772 | 0.667 | 0.245 | 0.172 |
| NCI-H322M | 0.896 | 0.925 | 0.649 | 0.402 | 0.397 |
| EKVX | 0.954 | 0.812 | 0.194 | 0.195 | 0.202 |
| NCI-H1734 | 0.841 | 0.731 | 0.314 | 0.327 | 0.174 |
| SW 900 | 0.68 | 0.832 | 0.598 | 0.194 | 0.186 |
| ABC-1 | 1.08 | 1.06 | 0.58 | 0.344 | 0.22 |
| NCI-H520 | 1.15 | 0.644 | 0.486 | 0.266 | 0.322 |
| EPLC-272H | 0.733 | 0.554 | 0.152 | 0.0794 | 0.133 |
| NCI-H596 | 0.87 | 0.804 | 0.762 | 0.175 | 0.395 |
| NCI-H1993 | 0.772 | 0.849 | 0.525 | 0.484 | 0.557 |
| NCI-H647 | 1.08 | 1.04 | 0.691 | 0.301 | 0.131 |
| NCI-H1793 | 0.715 | 0.286 | 0.232 | 0.194 | 0.138 |
| NCI-H1563 | 0.908 | 0.833 | 0.846 | 0.818 | 0.607 |
| NCI-H1395 | 0.895 | 0.916 | 0.696 | 0.561 | 0.38 |
| NCI-H1299 | 1.05 | 1.05 | 0.665 | 0.333 | 0.192 |
| HCC-827 | 1.05 | 0.726 | 0.333 | 0.276 | 0.237 |
| ChaGo-K-1 | 0.922 | 0.845 | 0.237 | 0.21 | 0.192 |
| NCI-H2228 | 0.734 | 0.642 | 0.493 | 0.0956 | 0.114 |
| NCI-H2170 | 0.715 | 0.972 | 0.605 | 0.563 | 0.181 |
| EMC-BAC-2 | 0.922 | 0.838 | 0.318 | 0.252 | 0.203 |

| Cell Line | relative viability (first compound 0.005 µM) | relative viability (first compound 0.01581 µM) | relative viability (first compound 0.05 µM) | relative viability (first compound 0.1581 µM) | relative viability (first compound 0.5 µM) |
| --- | --- | --- | --- | --- | --- |
| A549 | 0.977 | 0.492 | 0.209 | 0.0402 | 0.0374 |
| NCI-H23 | 0.759 | 0.452 | 0.269 | 0.235 | 0.211 |
| SK-LU-1 | 0.818 | 0.66 | 0.324 | 0.227 | 0.182 |
| NCI-H358 | 0.608 | 0.485 | 0.181 | 0.111 | 0.0732 |
| LC-2-ad | 0.803 | 0.597 | 0.503 | 0.351 | 0.285 |
| HCC-15 | 0.999 | 0.627 | 0.184 | 0.139 | 0.129 |
| NCI-H2405 | 1.02 | 0.992 | 0.838 | 0.371 | 0.286 |
| LXF-289 | 0.858 | 0.675 | 0.218 | 0.187 | 0.157 |
| CAL-12T | 0.995 | 0.821 | 0.231 | 0.231 | 0.212 |
| COR-L23 | 0.848 | 0.823 | 0.606 | 0.243 | 0.128 |
| NCI-H1755 | 0.85 | 0.846 | 0.615 | 0.532 | 0.325 |
| NCI-H1437 | 1.08 | 0.939 | 0.796 | 0.454 | 0.236 |
| NCI-H2085 | 1.03 | 0.812 | 0.309 | 0.259 | 0.228 |
| IA-LM | 1.11 | 1.09 | 0.737 | 0.214 | 0.0846 |
| H3255 | 0.823 | 0.821 | 0.573 | 0.219 | 0.177 |
| NCI-H661 | 0.995 | 1.04 | 0.813 | 0.423 | 0.369 |
| LCLC-103H | 0.759 | 0.544 | 0.283 | 0.272 | 0.236 |
| LOU-NH91 | 0.921 | 0.922 | 0.655 | 0.444 | 0.366 |
| NCI-H1650 | 1.19 | 0.873 | 0.653 | 0.23 | 0.231 |
| NCI-H3122 | 0.9 | 0.981 | 0.551 | 0.384 | 0.191 |
| RERF-LC-KJ | 0.861 | 0.772 | 0.484 | 0.356 | 0.21 |
| Calu-6 | 0.855 | 0.599 | 0.228 | 0.155 | 0.137 |
| NCI-H1651 | 0.907 | 0.571 | 0.445 | 0.338 | 0.195 |
| NCI-H2087 | 1.12 | 0.856 | 0.176 | 0.172 | 0.119 |
